Reference: patent publication US10172868B2, “Substituted quinazolines for inhibiting kinase activity” (NeuPharma, Inc., priority 2013, dated 2019)

Legend:
EGFR (ErbB1) = EGFR (ErbB1) (Homo sapiens (Human), UniProt P00533); assay: Z'-LYTE kinase inhibition assay, EGFR; type: biochemical; conditions: read-out: % inhibition against EGFR (Compound at 0.041 μM)
In short: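 Z'-LYTE FRET assay run with 1.1-5.25 ng EGFR and 2 μM peptide substrate in 50 mM HEPES pH 7.5, 10 mM MgCl2, 2 mM MnCl2, 1 mM EGTA, 1 mM DTT, 0.01% BRIJ-35, 1% DMSO. Kinase reaction 60 min at room temperature, then 60 min development; IC50 from 10-point 3-fold titrations.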

EGFR (ErbB1) T790M L858R = EGFR (ErbB1) T790M L858R (Homo sapiens (Human), UniProt P00533, L858R/T790M); assay: Z'-LYTE kinase inhibition assay, EGFR L858R/T790M; type: biochemical; conditions: for inhibition at 0.0137 µM: read-out: % inhibition against EGFR L858R/T790M (Compound at 0.0137 μM); for IC50: read-out: IC50 against EGFR L858R/T790M
Sequence of EGFR (ErbB1) T790M L858R (P00533 25-1210 T790M/L858R): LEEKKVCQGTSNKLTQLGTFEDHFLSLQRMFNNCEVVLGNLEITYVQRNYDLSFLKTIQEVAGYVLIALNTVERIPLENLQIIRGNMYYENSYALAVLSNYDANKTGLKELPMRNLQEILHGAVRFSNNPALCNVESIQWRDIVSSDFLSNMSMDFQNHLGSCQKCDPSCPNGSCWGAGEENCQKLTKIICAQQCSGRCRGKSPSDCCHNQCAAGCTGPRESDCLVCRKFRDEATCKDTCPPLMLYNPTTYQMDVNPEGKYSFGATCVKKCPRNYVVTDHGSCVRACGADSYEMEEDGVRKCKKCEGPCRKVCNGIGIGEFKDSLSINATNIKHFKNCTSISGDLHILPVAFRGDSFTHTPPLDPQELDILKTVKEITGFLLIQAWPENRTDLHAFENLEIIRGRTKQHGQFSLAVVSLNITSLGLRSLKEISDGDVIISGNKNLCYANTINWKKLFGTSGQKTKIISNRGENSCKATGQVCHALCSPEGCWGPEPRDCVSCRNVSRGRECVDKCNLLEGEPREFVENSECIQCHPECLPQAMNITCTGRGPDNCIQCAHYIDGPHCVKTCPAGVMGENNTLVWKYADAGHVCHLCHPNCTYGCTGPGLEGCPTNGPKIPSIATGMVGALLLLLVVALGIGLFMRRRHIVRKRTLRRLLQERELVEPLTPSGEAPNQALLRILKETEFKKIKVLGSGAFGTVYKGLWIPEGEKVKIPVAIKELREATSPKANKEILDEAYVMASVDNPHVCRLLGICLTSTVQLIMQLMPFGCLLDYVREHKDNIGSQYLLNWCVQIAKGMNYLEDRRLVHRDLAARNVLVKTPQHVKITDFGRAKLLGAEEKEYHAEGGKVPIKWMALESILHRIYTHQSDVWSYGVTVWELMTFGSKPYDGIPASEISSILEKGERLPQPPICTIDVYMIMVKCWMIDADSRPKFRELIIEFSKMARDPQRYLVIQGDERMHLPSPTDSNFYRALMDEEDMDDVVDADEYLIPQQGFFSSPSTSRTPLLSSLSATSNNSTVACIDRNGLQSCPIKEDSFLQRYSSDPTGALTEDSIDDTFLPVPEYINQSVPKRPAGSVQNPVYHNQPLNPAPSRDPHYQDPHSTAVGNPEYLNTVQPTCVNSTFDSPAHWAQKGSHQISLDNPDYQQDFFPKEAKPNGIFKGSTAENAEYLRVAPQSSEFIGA
In short: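 Z'-LYTE FRET peptide assay at 1% DMSO, 10-point 3-fold titrations; kinase/peptide mix in 50 mM HEPES pH 6.5, 0.01% BRIJ-35, 10 mM MgCl2, 1 mM EGTA, 0.02% NaN3. Kinase reaction ran 60 min at room temperature, followed by 60 min development and a fluorescence read. IC50 derived from the concentration series.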

A431 cells = assay: cells; conditions: Homo sapiens, A-431, 72 h, read-out: IC50 in A431 cells
H1975 cells = assay: Inhibition of cancer cell growth, MTT assay, H1975; conditions: Homo sapiens, NCI-H1975, 72 h, read-out: IC50 in H1975 cells
Method: Inhibition of cell growth by compounds was measured using MTT assay (Mosmann, T., Journal of Immunological Methods, 1983, 65, 55-63). Tumor cell lines were purchased from ATCC (American Type Culture Collection, Manassas, Va.). All cell lines were maintained in RPMI 1640 (Hyclone) supplemented with 10% fetal bovine serum (FBS, Hyclone), glutamine (2 mM, Hyclone), and antibiotics (penicillin 100 U/mL and streptomycin 50 μg/mL) at 37° C. in a humidified atmosphere of 5% CO2 in air. Taxol (as a positive control. Sigma) and compounds were dissolved in DMSO (Sigma), and the final concentration of DMSO in the medium was 1%. Tumor cells were plated in 96-well plates at densities of about 4000 cells/well of a 96-well plate and allowed to adhere/grow for 24 h. They were then treated with various concentrations of drug for 72 h, 3-(4,5-Dimethylthiazol-2-yl)-2,5-diphenyltetrazolium bromide (MTT, Sigma) was used to determine the number of viable cells at the time of compound addition and the number of cells remaining after 72 h compound exposure. The number of cells remaining after 72 h was compared to the number of viable cells at the time of compound addition by measuring the absorbance at 570 nm, allowing for the calculation of growth inhibition.
All concentrations of compounds were tested in triplicate and controls were averaged over 4 wells. IC50 was calculated by plotting the concentration of compound vs the percentage of inhibition in treated wells using GraphPad Prism 5.

BTK = BTK (Homo sapiens (Human), UniProt Q06187); assay: Z'-LYTE kinase inhibition assay, BTK; type: biochemical; conditions: compound at 0.041 μM; read-out: % inhibition against BTK
Sequence of BTK (Q06187 whole entry): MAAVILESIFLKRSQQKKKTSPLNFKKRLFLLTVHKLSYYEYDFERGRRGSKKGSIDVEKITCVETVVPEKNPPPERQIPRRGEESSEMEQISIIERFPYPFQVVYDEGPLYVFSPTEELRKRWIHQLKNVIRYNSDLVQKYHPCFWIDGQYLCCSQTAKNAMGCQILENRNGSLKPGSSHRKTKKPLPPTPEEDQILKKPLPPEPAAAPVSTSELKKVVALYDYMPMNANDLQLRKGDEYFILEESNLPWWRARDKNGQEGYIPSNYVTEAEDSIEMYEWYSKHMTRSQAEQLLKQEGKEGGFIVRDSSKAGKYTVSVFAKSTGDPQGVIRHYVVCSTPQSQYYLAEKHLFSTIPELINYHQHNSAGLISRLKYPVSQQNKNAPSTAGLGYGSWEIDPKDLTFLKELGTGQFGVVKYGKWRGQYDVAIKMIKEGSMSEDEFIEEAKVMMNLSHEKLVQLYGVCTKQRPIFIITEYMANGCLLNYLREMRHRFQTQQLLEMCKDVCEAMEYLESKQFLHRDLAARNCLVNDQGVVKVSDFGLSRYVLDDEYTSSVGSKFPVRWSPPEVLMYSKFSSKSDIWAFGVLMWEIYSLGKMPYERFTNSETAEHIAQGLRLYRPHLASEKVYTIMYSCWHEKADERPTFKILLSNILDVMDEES
Method: Inhibitory activities of compounds against BTK, EGFR and EGFR mutants (EGFR L858R, EGFR T790M, EGFR L858R/T790M), FGFR1, FGFR2, JAK2, JAK3 and KDR were measured by Invitrogen using Z'-LYTE® Method as briefly described in the following.
Test Compounds are screened in 1% DMSO (final) in the well. For 10 point titrations, 3-fold serial dilutions are conducted from the starting concentration. All ATP Solutions are diluted to a 4× working concentration in Kinase Buffer (50 mM HEPES pH 7.5, 0.01% BRIJ-35, 10 mM MgCl2, 1 mM EGTA). Peptide/Kinase Mixtures are diluted to a 2× working concentration in the appropriate Kinase Buffers as described below.
(v) Peptide/Kinase Mixtures for Measurement of BTK:
The 2×BTK/Tyr 01 mixture is prepared in 50 mM HEPES pH 7.5. 0.01% BRIJ-35, 10 mM MgCl2, 1 mM EGTA.
The mixture is then incubated for another 60-minute at room temperature for development reaction. Finally fluorescence is read by plate reader.
To determine IC50 of a compound against EGFR, EGFR mutant and other kinases, a series of concentrations of the compound were tested for the inhibition. […] The scale utilized in Table 4 is as follows: +++ less than 100 nM, ++ 100-500 nM and + greater than 500 nM.

Sequence of EGFR (ErbB1) (P00533 25-1210): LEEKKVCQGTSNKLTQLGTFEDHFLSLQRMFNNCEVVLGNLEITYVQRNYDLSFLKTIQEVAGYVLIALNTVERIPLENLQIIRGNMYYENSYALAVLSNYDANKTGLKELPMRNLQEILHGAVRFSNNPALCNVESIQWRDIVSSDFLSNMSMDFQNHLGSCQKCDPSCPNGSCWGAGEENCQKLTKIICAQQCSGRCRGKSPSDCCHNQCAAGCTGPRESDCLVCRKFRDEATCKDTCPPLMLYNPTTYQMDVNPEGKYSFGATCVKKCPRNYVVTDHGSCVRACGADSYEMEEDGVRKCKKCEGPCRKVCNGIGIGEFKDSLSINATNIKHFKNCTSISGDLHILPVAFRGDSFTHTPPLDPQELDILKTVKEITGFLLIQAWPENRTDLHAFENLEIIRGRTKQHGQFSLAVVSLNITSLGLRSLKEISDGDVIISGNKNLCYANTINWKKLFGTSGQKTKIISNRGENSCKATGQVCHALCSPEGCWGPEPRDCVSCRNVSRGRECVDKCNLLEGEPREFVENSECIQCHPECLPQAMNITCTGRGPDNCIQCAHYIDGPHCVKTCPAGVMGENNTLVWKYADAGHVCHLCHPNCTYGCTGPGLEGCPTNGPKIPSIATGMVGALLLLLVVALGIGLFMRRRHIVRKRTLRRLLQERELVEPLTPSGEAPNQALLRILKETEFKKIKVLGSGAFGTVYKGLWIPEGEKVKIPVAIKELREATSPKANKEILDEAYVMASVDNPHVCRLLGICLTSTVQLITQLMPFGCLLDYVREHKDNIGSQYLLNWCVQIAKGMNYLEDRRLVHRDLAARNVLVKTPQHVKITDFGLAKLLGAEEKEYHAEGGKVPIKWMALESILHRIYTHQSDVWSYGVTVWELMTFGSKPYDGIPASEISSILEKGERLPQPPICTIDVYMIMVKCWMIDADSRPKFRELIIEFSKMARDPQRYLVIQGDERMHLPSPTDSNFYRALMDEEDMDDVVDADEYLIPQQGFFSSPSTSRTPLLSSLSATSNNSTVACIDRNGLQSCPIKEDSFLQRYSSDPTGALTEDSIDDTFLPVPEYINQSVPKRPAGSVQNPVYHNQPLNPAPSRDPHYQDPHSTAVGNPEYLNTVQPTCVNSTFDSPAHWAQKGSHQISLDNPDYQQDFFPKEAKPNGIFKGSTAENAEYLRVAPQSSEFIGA

Structure (SMILES)	inhibition at 0.041 µM (EGFR (ErbB1)) [%]	inhibition at 0.0137 µM (EGFR (ErbB1) T790M L858R) [%]	IC50 (EGFR (ErbB1) T790M L858R) [nM]	IC50 (A431 cells) [nM]	IC50 (H1975 cells) [nM]	inhibition at 0.041 µM (BTK) [%]
C=CC(=O)Nc1cccc(-c2cccc3cnc(Nc4ccc(N5CCN(C(C)=O)CC5)cc4)nc23)c1F [Example C049, N-(3-(2-((4-(4-acetylpiperazin-1-yl)phenyl)amino)quinazolin-8-yl)-2-fluorophenyl)acrylamide]	> 50	> 50	< 100	> 500	100 to 500	–
C=CC(=O)Nc1cccc(-c2cccc3cnc(Nc4ccc(N5CCN(CC(F)F)CC5)cc4)nc23)c1 [Example C056, N-(3-(2-((4-(4-(2,2-difluoroethyl)piperazin-1-yl)phenyl)amino)quinazolin-8-yl)phenyl)acrylamide]	< 50	< 50	–	> 500	100 to 500	–
C=CC(=O)Nc1cc(-c2cccc3cnc(Nc4ccc(N5CCN(C)CC5)cc4)nc23)ccn1 [Example C057, N-(4-(2-((4-(4-methylpiperazin-1-yl)phenyl)amino)quinazolin-8-yl)pyridin-2-yl)acrylamide]	> 50	> 50	< 100	100 to 500	100 to 500	–
C=CC(=O)Nc1cncc(-c2cccc3cnc(Nc4ccc(N5CCN(CCF)CC5)cc4)nc23)c1 [Example C058, N-(5-(2-((4-(4-(2-fluoroethyl)piperazin-1-yl)phenyl)amino)quinazolin-8-yl)pyridin-3-yl)acrylamide]	< 50	> 50	–	> 500	< 100	–
CC(=O)N1CCN(c2ccc(Nc3ncc4cccc(-c5cccc(NC(=O)/C=C/CN(C)C)c5Cl)c4n3)cc2)CC1 [Example C060, (E)-N-(3-(2-((4-(4-acetylpiperazin-1-yl)phenyl)amino)quinazolin-8-yl)-2-chlorophenyl)-4-(dimethylamino)but-2-enamide]	< 50	> 50	–	> 500	100 to 500	–
C=CC(=O)Nc1cccc(-c2cccc3cnc(Nc4ccc(N5CCN(CCF)CC5)cc4)nc23)c1F [Example C061, N-(2-fluoro-3-(2-((4-(4-(2-fluoroethyl)piperazin-1-yl)phenyl)amino)quinazolin-8-yl)phenyl)acrylamide]	< 50	> 50	< 100	> 500	< 100	–
C=CC(=O)Nc1cccc(-c2cccc3cnc(Nc4ccc(N5CCN(C)CC5)cc4)nc23)c1OC [Example C063, N-(2-methoxy-3-(2-((4-(4-methylpiperazin-1-yl)phenyl)amino)quinazolin-8-yl)phenyl)acrylamide]	> 50	> 50	< 100	> 500	< 100	–
C=CC(=O)Nc1cccc(-c2cccc3cnc(Nc4ccc(N5CCN(C)CC5)cc4)nc23)c1C#N [Example C068, N-(2-cyano-3-(2-((4-(4-methylpiperazin-1-yl)phenyl)amino)quinazolin-8-yl)phenyl)acrylamide]	> 50	> 50	< 100	> 500	100 to 500	–
C=CC(=O)Nc1cccc(-c2cccc3cnc(Nc4ccc(N5CCN(C)CC5)c(F)c4)nc23)c1 [Example C069, N-(3-(2-((3-fluoro-4-(4-methylpiperazin-1-yl)phenyl)amino)quinazolin-8-yl)phenyl)acrylamide]	> 50	> 50	–	< 100	< 100	–
C=CC(=O)Nc1cccc(-c2cccc3cnc(Nc4ccc(N5CCN(C)CC5)c(Cl)c4)nc23)c1 [Example C072, N-(3-(2-((3-chloro-4-(4-methylpiperazin-1-yl)phenyl)amino)quinazolin-8-yl)phenyl)acrylamide]	< 50	> 50	< 100	100 to 500	100 to 500	–
C=CC(=O)Nc1cccc(-c2cccc3cnc(Nc4ccc(N5CCN(C)CC5)c(C#N)c4)nc23)c1 [Example C074, N-(3-(2-((3-cyano-4-(4-methylpiperazin-1-yl)phenyl)amino)quinazolin-8-yl)phenyl)acrylamide]	< 50	> 50	< 100	100 to 500	100 to 500	–
C=CC(=O)Nc1cccc(-c2cccc3cnc(Nc4ccc(OC5CN(CCF)C5)cc4)nc23)c1 [Example C078, N-(3-(2-((4-((1-(2-fluoroethyl)azetidin-3-yl)oxy)phenyl)amino)quinazolin-8-yl)phenyl)acrylamide]	> 50	> 50	< 100	> 500	< 100	–
C=CC(=O)Nc1cccc(-c2cccc3cnc(Nc4ccc(OC5CCN(C)CC5F)cc4)nc23)c1F (centres unmarked) [Example C080, N-(2-fluoro-3-(2-((4-((3-fluoro-1-methylpiperidin-4-yl)oxy)phenyl)amino)quinazolin-8-yl)phenyl)acrylamide]	> 50	> 50	< 100	100 to 500	< 100	–
C=CC(=O)Nc1cccc(-c2c(F)ccc3cnc(Nc4ccc(N5CCN(C)CC5)cc4)nc23)c1 [Example C087, N-(3-(7-fluoro-2-((4-(4-methylpiperazin-1-yl)phenyl)amino)quinazolin-8-yl)phenyl)acrylamide]	> 50	> 50	< 100	100 to 500	100 to 500	–
C=CC(=O)Nc1cccc(-c2cccc3cnc(Nc4ccc(N5CCOC5=O)cc4)nc23)c1 [Example C091, N-(3-(2-((4-(2-oxooxazolidin-3-yl)phenyl)amino)quinazolin-8-yl)phenyl)acrylamide]	< 50	< 50	–	> 500	100 to 500	–
C=CC(=O)Nc1cccc(-c2cccc3cnc(Nc4ccc(NC5CCOCC5)cc4)nc23)c1 [Example C111, N-(3-(2-((4-((tetrahydro-2H-pyran-4-yl)amino)phenyl)amino)quinazolin-8-yl)phenyl)acrylamide]	< 50	< 50	–	–	< 100	> 50
C=CC(=O)Nc1cccc(-c2cccc3cnc(Nc4ccc(OC5CCOCC5)cc4)nc23)c1 [Example C112, N-(3-(2-((4-((tetrahydro-2H-pyran-4-yl)oxy)phenyl)amino)quinazolin-8-yl)phenyl)acrylamide]	< 50	< 50	–	–	< 100	> 50
C=CC(=O)Nc1cccc(-c2cccc3cnc(Nc4ccc(N[C@@H]5CCN(C)C5)cc4)nc23)c1 [Example C129, (R)-N-(3-(2-((4-((1-methylpyrrolidin-3-yl)amino)phenyl)amino)quinazolin-8-yl)phenyl)acrylamide]	> 50	> 50	< 100	< 100	< 100	–
C=CC(=O)Nc1cccc(-c2cccc3cnc(Nc4ccc(OC5CCN(CCF)CC5)cc4)nc23)c1 [Example C136, N-(3-(2-((4-((1-(2-fluoroethyl)piperidin-4-yl)oxy)phenyl)amino)quinazolin-8-yl)phenyl)acrylamide]	< 50	> 50	–	< 100	< 100	–
C=CC(=O)Nc1cccc(-c2cccc3cnc(Nc4ccc(NC5CCN(CCF)CC5)cc4)nc23)c1 [Example C138, N-(3-(2-((4-((1-(2-fluoroethyl)piperidin-4-yl)amino)phenyl)amino)quinazolin-8-yl)phenyl)acrylamide]	> 50	> 50	< 100	100 to 500	< 100	–
